Test results: patent US11116719B2, “Methods of treating Meniere's disease” (priority 2017, dated 2021)
Where “and” joins values, the source holds several entries; their conditions need not be identical. Identical values can stand only once. Like-named read-outs stand apart in the source and are kept apart here.

Legend:
[1] = test system: humans with Eustachian tube dysfunction; details: cited from earlier work
[2] = test system: human patients suffering from secondary Meniere's disease (activated cervical sympathetic nervous system, mild Eustachian tube dysfunction); test: Clinical treatment of secondary Meniere's disease patients with oral betahistine, electrocochleography (ECochG) SP/AP amplitude ratio and symptoms; assay type: in vivo
Procedure: Patients, aged 19-70 years, have undergone baseline testing to determine SP/AP amplitude ratio using ECochG in Meniere's disease patients before the start of study treatment. The effect on SP/AP amplitude ratio was evaluated after a predetermined period of treatment with betahistine or a pharmaceutically acceptable salt.
Patients were seated in a swivel chair and the chair rotated while the patient's head was stabilized. Effect of rotational movement was observed and pupil enlargement a determinant of secondary Meniere's disease.
Dose levels included 16 mg of betahistine three time daily for predetermined period. 8 mg dose twice daily thereafter for a second predetermined period.
Patient studies comprise a range of dosing regimens including tablets, powders, sprays. In present studies unless otherwise stated each dose was administered in a tablet form in the morning taken after food.
Route of Administration can include oral and topical delivery. In the present studies unless otherwise stated route of administration was oral delivery.
Audiological evaluations were performed at specified intervals to evaluate the efficacy of Tests performed by physician or qualified audiologist. ECochG was performed at specified intervals by a physician specialist. Patient reported outcomes by self-administered questionnaire included the VSS (Yardley et al. 2004) and the TFI (Meikle et al. 2011). These were scored by study personnel.
Patient was started on oral dosage form of betahistine 16 mg three times daily (tds) for two weeks and reduced to 8 mg once daily thereafter for two months.

[3] = high concentrations; cited from earlier work
[4] = test system: eustachian tube function in "normal" volunteers; details: cited from earlier work; for effect on eustachian tube function (tympanometry): "normal" volunteers, nasal application
[5] = test system: Eustachian tube function in rat model; details: topical application; cited from earlier work
[6] = patient, review at two months of oral betahistine
[7] = patient, two months into oral betahistine treatment

Question: For CNCCc1ccccn1 [betahistine], which result versus placebo [1] is on record?
Answer: no greater result than a placebo

Question: What about the “elevated SP/AP ratio indicating endolymphatic hydrops” value ([2]; all cases of secondary MD treated) of the same compound?
Answer: normalized

Question: What about the “Left Ear SP/AP Ratio, Average Ratio” value ([2]; patient, after treatment (before treatment 28.6%)) of the same compound?
Answer: Average Ratio of 16%

Question: What about the “Right Ear SP/AP Ratio” value ([2]; patient, after treatment, single traces) of the same compound?
Answer: 9% and 18%

Question: What about the repeat electrocochleograms [2, 6] of the same compound?
Answer: returned to normal levels

Question: What about the symptoms at review [2, 6] of the same compound?
Answer: improved significantly

Question: What about the repeat electrocochleograms [2, 7] of the same compound?
Answer: returned to normal levels

Question: And the symptoms at review [2, 7]?
Answer: improved significantly

Question: And the treatment outcomes ([2]; patients suffering from secondary MD)?
Answer: invariably improved treatment outcomes

Question: And the Eustachian tube function ([2]; patients with activated cervical sympathetic nervous system and mild Eustachian tube dysfunction)?
Answer: facilitation of Eustachian tube function

Question: What about the toxicity [3] of the same compound?
Answer: nontoxic

Question: And the “effect on eustachian tube function (tympanometry)” value ([4]; at best)?
Answer: no effect

Question: What about the “effect on eustachian tube function (tympanometry)” value ([4]; higher dosages) of the same compound?
Answer: Eustachian tube function became worse

Question: And the “mild Eustachian tube dysfunction” value ([4]; volunteers found to have mild Eustachian tube dysfunction)?
Answer: not improved

Question: What about the Eustachian tube function [5] of the same compound?
Answer: improved
